Reference: ChEMBL document CHEMBL1649203, “Pharmacokinetics and safety of famciclovir in children with herpes simplex or varicella-zoster virus infection” (Antimicrob Agents Chemother, 2009)

Legend:
Homo sapiens [1] = test: AUC (0 to infinity) in healthy human at 500 mg, po administered as single dose; type: ADME, organism-based, Plasma; parameters: dose 500 mg, route oral, time infinity; conditions: in vivo
Homo sapiens [2] = test: AUC (0 to last) in healthy human at 500 mg, po administered as single dose; type: ADME, organism-based, Plasma; parameters: dose 500 mg, time 0 - last, route oral; conditions: in vivo

SMILES: CC(=O)OCC(CCn1cnc2cnc(N)nc21)COC(C)=O [FAMCICLOVIR]
- AUC (Homo sapiens [1]): 8.94 ug/hr.ml
- AUC (Homo sapiens [2]): 8.54 ug/hr.ml
